{"source": "patent US9663899B2", "about": "“Method for making lignocellulosic paper and paper product” (Solenis Technologies, L.P., priority 2015, dated 2017)", "system": "Laccase NS51003", "experiment": "ABTS laccase assay for relative laccase activity", "assay_type": "biochemical, Aspergillus", "protocol": "One unit of activity is equal to the micromole of the oxidized product from ABTS per min per mg protein at pH 4.0 to 6.0 at 23° C. in an acetate buffer. […] A diluted enzyme solution (1.5 milliliter (ml)) was added to a mixture of 1.5 ml ABTS (0.5 millimole (mM)) solution and 1.5 ml of sodium acetate buffer (1 mM) to initiate the oxidization reaction. After mixing, incubation was conducted at 23° C., while the change in absorbance per minute was measured at 420 nm. Two Aspergillus laccases were used both from Novozymes (Bagsvaerd, Denmark), to compare with the enzyme compositions. […] NS51002 alone worked best at pH 4-5 while NS51003 worked best at pH 5-6. The ABTS laccase assay was used to evaluate the effects of cationic fixative polymer, lipase and the laccase activator of the dry strength compositions on laccase activity. The same amount of laccase active in each composition was used in the assay. In Table III, the relative activity numbers were determined by normalizing the values based on that of laccase alone at 100%."}
{"smiles": "O=S(=O)([O-])[O-].[Cu+2]", "note": "[copper sulfate]", "values": [{"measurement": "effect on laccase activity", "setting": "copper level 0.5 wt. %", "result": "lost some of its original activity"}, {"measurement": "effect on laccase activity", "setting": "copper sulfate in the composition", "result": "not significant"}, {"measurement": "effect on laccase activity", "setting": "dosage of copper sulfate higher than 0.5%", "result": "negatively affected"}]}
